Source: publication PMC6368365, “Didehydro-Cortistatin A Inhibits HIV-1 by Specifically Binding to the Unstructured Basic Region of Tat” (mBio, 2019)

Assays:
[1] = MTT viability assay, 72 h; assay type: cell-based; details: human, HeLa-CD4-LTR-LacZ cells, mean ± SD, n = 2 to 3
Description: The assay was performed with MTT [3-(4,5-dimethyl-2-thiazolyl)-2,5-diphenyl-2H-tetrazolium bromide] as described in reference.

HIV-1 TAR = experiment: ITC of dCA binding to TAR; details: 25°C
Excerpt: FIG 6 dCA binding to Tat disrupts Tat-TAR interaction. (A) EMSA of full-length Tat with TAR in the presence of dCA. Raltegravir (Ralt.) and deleted bulge TAR (ΔTAR) were used as negative controls. Data are representative of n = 3 independent experiments. (B) EMSA of Tat’s basic domain with TAR in the presence of increasing concentrations of dCA to Tat’s basic peptide. Pep B is a peptide encompassing the basic domain of HIV Tat (^45ISYGRKKRRQRRRAP^59). Pep C (^69LSKQPASQPRGDPTG^83) and unlabeled or cold TAR (TARc) were used as negative controls. Neomycin, which binds to Tat and TAR, was used as a positive control. Ratios of compounds (or TARc) concentrations to peptide are shown. Data are representative of n = 3 independent experiments. […] Shown are ITC results from binding of dCA (left) or Tat peptide (right) to TAR at 25°C. […] Luciferase activity was determined relative to protein concentration (Bradford assay) (Fig. S9A). […] Statistical significance was determined using one-way ANOVA with post hoc Tukey’s test with 3 technical replicates. ns, not significant; ***, P < 0.0001. […]
Isothermal titration calorimetry. […] Each injection generated a heat burst curve (microcalories/second vs. seconds) and the area under each curve was determined by integration [using the origin version 7.0 software (Microcal, Inc.; Northampton, MA)] to obtain the measure of the heat associated with that injection.

[2] = tested on: export function of HIV Rev; experiment: Viral mRNA export in NL4-3-infected CEM-SS cells (qRT-PCR); assay type: cell-based, HIV-1; details: dCA 30 nM, 24 hours
Excerpt: If dCA were to bind the basic domain of Tat in its disordered form, then one would predict it might also bind to other basic peptide sequences and block their functions. The two well-known proteins that share a similar basic domain with Tat are HIV-1 Rev protein and the cellular protein Hexim-1 (Fig. 3A). As such, we investigated whether dCA could inhibit these similar basic domain functions. The basic domain of Rev is responsible for its nuclear localization ([31]); therefore, we assessed whether dCA could impact the subcellular localization of Rev (Fig. 3B) as previously shown for Tat ([10]). We transfected HeLa-CD4-LTR-Luc cells with a plasmid expressing FLAG-tagged Rev and assessed Rev localization in the presence of 100 nM dCA. […] Twenty-four hours later, cells were collected, and total, nuclear, and cytoplasmic mRNAs were extracted, reverse transcribed, and quantified by quantitative real-time PCR (qRT-PCR).
Cells were infected with the NL4-3 strain for 24 hours. […] Total, nuclear, and cytoplasmic mRNAs were extracted, and viral messages were measured by qRT-PCR. […] Statistical significance was determined using one-way ANOVA with post hoc Tukey’s test, comparing the DMSO condition to the other conditions. ***, P < 0.0001; **, P < 0.001; *, P < 0.01. […] Seventy hours later, viability was measured. […]

CN(C)C1CC23CCC4(O2)C(=CCC2(C)C(c5ccc6ccncc6c5)=CCC24)C=C3C(O)C1O (stereo not drawn) [dCA, didehydro-cortistatin A]
CC50 at 72 h [1]: 20 µM
binding to TAR (ITC) (HIV-1 TAR): does not bind to TAR
export function of HIV Rev in CEM-SS cells [2]: does not perturb the export function of HIV Rev in CEM-SS cells
